In the experiment the target is T1, human PAD4 (Homo sapiens, UniProt Q9UM07).
T1 construct: human PAD4 (NM_012387), A2-P663, was PCR amplified; His-SUMO (N, cleaved yes); made in house; host or cells: E. coli BL21(DE3)
Put plainly: In vitro PAD4 BAEE biochemical assay. Conditions: BAEE substrate 3 mM, 5 nM PAD4, 2 mM calcium chloride; geometric mean of multiple experiments. In a few lines: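 Assay was run at 25 °C using 3 mM BAEE and 5 nM human PAD4 after a 30 min compound preincubation; ammonia produced over 2 h was quantified by OPA-derived fluorescence. Full inhibition was defined by 50 µM BB-Cl-Amidine, and IC50 came from variable-slope nonlinear regression.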

T1 sequence (Q9UM07 2-663): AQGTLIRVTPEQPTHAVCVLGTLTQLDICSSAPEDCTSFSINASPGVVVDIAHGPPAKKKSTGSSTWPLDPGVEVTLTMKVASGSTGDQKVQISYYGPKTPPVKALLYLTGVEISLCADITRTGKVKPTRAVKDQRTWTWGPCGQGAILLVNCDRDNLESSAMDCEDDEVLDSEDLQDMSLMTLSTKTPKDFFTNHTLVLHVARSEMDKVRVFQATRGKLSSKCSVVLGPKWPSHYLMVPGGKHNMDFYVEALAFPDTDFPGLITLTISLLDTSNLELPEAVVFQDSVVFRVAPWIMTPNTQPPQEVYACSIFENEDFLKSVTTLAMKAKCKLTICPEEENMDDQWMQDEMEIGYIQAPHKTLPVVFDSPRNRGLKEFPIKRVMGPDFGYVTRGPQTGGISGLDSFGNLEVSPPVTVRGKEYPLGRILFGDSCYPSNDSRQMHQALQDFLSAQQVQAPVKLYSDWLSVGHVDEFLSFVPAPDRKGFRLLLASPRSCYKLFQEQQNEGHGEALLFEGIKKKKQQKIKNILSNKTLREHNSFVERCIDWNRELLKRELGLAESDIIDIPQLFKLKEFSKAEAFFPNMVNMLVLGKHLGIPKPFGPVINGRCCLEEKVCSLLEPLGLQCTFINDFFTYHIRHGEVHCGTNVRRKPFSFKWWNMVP

What is called IC50 is the midpoint of a concentration-inhibition curve. Regarding `C[C@H]1NC(=O)[C@@H]2[C@@H](CCCC(F)(F)Cn3c(-c4nc5cc(C(=O)N[C@H]6CNCC[C@@H]6F)c(F)cc5n4C4CC4)cc4ccc1nc43)C2(F)F` [Example 390, 1-cyclopropyl-6-fluoro-~{N}-[(3~{S},4~{S})-4-fluoro-3-piperidyl]-2-[(2~{R},5~{S},7~{R})-6,6,11,11-tetrafluoro-2-methyl-4-oxo-3,13,19-triazatetracyclo[11.5.2.0^{5,7}.0^{16,20}]icosa-1(19),14,16(20),17-tetraen-14-yl]benzimidazole-5-carboxamide], the IC50 turned out to be 88 nM. Then `COc1cc(C(=O)N2[C@H]3CC[C@@H]2[C@H](N)C3)cc2nc(-c3cc4ccc5nc4n3CCCCCCC(=O)Nc3ccncc3-5)n(C)c12` [Example 90, 17-[5-[(1~{R},2~{R},4~{S})-2-amino-7-azabicyclo[2.2.1]heptane-7-carbonyl]-7-methoxy-1-methyl-benzimidazol-2-yl]-4,8,16,22-tetrazatetracyclo[14.5.2.0^{2,7}.0^{19,23}] tricosa-1(22),2,4,6,17,19(23),20-heptaen-9-one], with 497 nM; and `COc1cc(C(=O)N[C@H]2CNCC[C@@H]2F)cc2nc(-c3cc4ccc5nc4n3CCCCCc3c(noc3C)C(=O)N[C@@H]5C)n(C)c12` [Example 398, 2-[(2~{R})-2,8-dimethyl-4-oxo-7-oxa-3,6,15,21-tetrazatetracyclo[13.5.2.0^{5,9}.0^{18,22}]docosa-1(21),5,8,16,18(22),19-hexaen-16-yl]-~{N}-[(3~{S},4~{S})-4-fluoro-3-piperidyl]-7-methoxy-1-methyl-benzimidazole-5-carboxamide], with 74 nM. Turning to `COc1cc(C(=O)N2C[C@H](N)[C@@H]3CC[C@H]2C3)cc2nc(-c3cc4ccc5nc4n3CCCCC[C@H]3[C@H](C(=O)N[C@@H]5C)C3(F)F)n(C3CC3)c12` [Example 930, (2~{R},5~{R},7~{S})-14-[5-[(1~{S},4~{R},5~{R})-4-amino-2-azabicyclo[3.2.1]octane-2-carbonyl]-1-cyclopropyl-7-methoxy-benzimidazol-2-yl]-6,6-difluoro-2-methyl-3,13,19-triazatetracyclo[11.5.2.0^ {5,7}.0^{16,20}]icosa-1(19), 14,16(20),17-tetraen-4-one], the half-inhibitory concentration (IC50) was 22 nM. Then `CC(C)n1c(-c2cc3ccc4nc3n2CCCCCCC(C)(C)C(=O)N[C@@H]4C)nc2cc(C(=O)N[C@H]3CNCC[C@@H]3F)c(F)cc21` [Example 421, 6-fluoro-~{N}-[(3~{S),4~{S})-4-fluoro-3-piperidyl]-1-isopropyl-2-[(11~{R})-8,8,11-trimethyl-9-oxo-1,10,19-triazatricyclo[10.5.2.0^{15,18}]nonadeca-12(19),13,15(18),16-tetraen-17-yl]benzimidazole-5-carboxamide], with 304 nM; and `COc1cc(C(=O)N[C@H]2CNCC[C@@H]2F)cc2nc(-c3cc4ccc5nc4n3C[C@H]3C[C@H]3CCCC(C)(C)C(=O)N[C@@H]5C)n(C)c12` [Example 367, ~{N}-[(3~{S},4~{S})-4-fluoro-3-piperidyl]-7-methoxy-1-methyl-2-[(3~{S},5~{R},12~{R})-9,9,12-trimethyl-10-oxo-1,11,20-triazatetracyclo[11.5.2.0^{3,5}.0^{16,19}]icosa-13(20),14,16(19),17-tetraen-18-yl]benzimidazole-5-carboxamide], with 82 nM; and `C[C@H]1NC(=O)[C@@H]2C[C@H]2CCCC(F)(F)Cn2c(-c3nc4cc(C(=O)N5C[C@H]6CC[C@@H]5[C@@H]6N)cc(F)c4n3C3CC3)cc3ccc1nc32` [Example 646, (2~{R},5~{R},7~{R})-14-[5-[(1~{R},4~{R},7~{R})-7-amino-2-azabicyclo [2.2.1]heptane-2-carbonyl]-1-cyclopropyl-7-fluoro-benzimidazol-2-yl]-11,11-difluoro-2-methyl-3,13,19-triazatetracyclo [11.5.2.0^{5,7}.0^{16,20}] icosa-1(19),14,16(20), 17-tetraen-4-one], with 22 nM. As to `C[C@H]1NC(=O)[C@H]2[C@@H](CCCC(F)(F)Cn3c(-c4nc5cc(C(=O)N[C@H]6CNCC[C@@H]6F)c(F)cc5n4C4CC4)cc4ccc1nc43)C2(F)F` [Example 389, 1-cyclopropyl-6-fluoro-~{N}-[(3~{S},4~{S})-4-fluoro-3-piperidyl]-2-[(2~{R},5~{R},7~{R})-6,6,11,11-tetrafluoro-2-methyl-4-oxo-3,13,19-triazatetracyclo[11.5.2.0^{5,7}.0^{16,20}]icosa-1(19),14,16(20),17-tetraen-14-yl]benzimidazole-5-carboxamide], the IC50 is 31 nM. Then `COc1cc(C(=O)N2[C@H]3CC[C@@H]2[C@H](N)C3)cc2nc(-c3cc4ccc5nc4n3C[C@H]3C[C@H]3COCCC(=O)N[C@@H]5C)c(C)n12` (single isomer, unassigned) [Example 327, (3˜{S},5˜{R},12˜{R})-18-[7-[(1˜{R},2˜{R},4˜{S})-2-amino-7-azabicyclo[2.2.1]heptane-7-carbonyl]-5-methoxy-3-methyl-imidazo[1,2-a]pyridin-2-yl]-12-methyl-7-oxa-1,11,20-triazatetracyclo[11.5.2.0^{3,5}.0^{16,19}]icosa-13(20),14,16(19),17-tetraen-10-one], with 12 nM. Regarding `C[C@H]1NC(=O)c2c(F)cncc2CCCCCn2c(-c3nc4cc(C(=O)N[C@H]5CNCC[C@@H]5F)c(F)cc4n3C3CC3)cc3ccc1nc32` [Example 355, 1-cyclopropyl-6-fluoro-2-[(2~{R})-6-fluoro-2-methyl-4-oxo-3,8,16,22-tetrazatetracyclo[14.5.2.0^{5,10}.0^{19,23}]tricosa-1(22),5,7,9,17,19(23),20-heptaen-17-yl]~{N}-[(3~{S},4~{S})-4-fluoro-3-piperidyl]benzimidazole-5-carboxamide], the IC50 came out at 18 nM. Then `COc1cc(C(=O)N[C@H]2CNCC[C@@H]2F)cc2nc(-c3cc4ccc5nc4n3CCCCC[C@@H]3CC[C@H]3C(=O)N[C@@H]5C)n(C)c12` (single isomer, unassigned) [Example 487, ˜{N}-[(3˜{S},4˜{S})-4-fluoro-3-piperidyl]-7-methoxy-1-methyl-2-[(2˜{R},5˜{R},8˜{R})-2-methyl-4-oxo-3,14,20-triazatetracyclo[12.5.2.0^{5,8}.0^{17,21}]henicosa-1(20),15,17(21),18-tetraen-15-yl]benzimidazole-5-carboxamide], with 82 nM.

Take `COc1cc(C(=O)N[C@H]2CNC[C@H](O)C2)cc2nc(-c3cc4ccc5nc4n3CCCCCCC(C)(C)C(=O)N[C@@H]5C)n(C)c12` [Example 530, ~{N}-[(3~{R},5~ {R})-5-hydroxy-3-piperidyl]-7-methoxy-1-methyl-2-[(11~{R})-8,8,11-trimethyl-9-oxo-1,10,19-triazatricyclo [10.5.2.0^{15,18}]nonadeca-12(19),13,15(18),16-tetraen-17-yl]benzimidazole-5-carboxamide]: the IC50 stood at 51 nM. As for `COc1cc(C(=O)N2C[C@H](N)CCN2C)cc2nc(-c3cc4ccc5nc4n3CCCCCCC(C)(C)C(=O)N[C@@H]5C)n(C)c12` [Example 299, (11~{R})-17-[5-[(5~{R})-5-amino-2-methyl-hexahydropyridazine-1-carbonyl]-7-methoxy-1-methyl-benzimidazol-2-yl]-8,8,11-trimethyl-1,10,19-triazatricyclo[10.5.2.0^{15,18}]nonadeca-12(19),13,15(18),16-tetraen-9-one], the half-inhibitory concentration (IC50) worked out at 58 nM. As for `C[C@H]1NC(=O)[C@H]2[C@H](CCCCCn3c(-c4nc5cc(C(=O)N[C@H]6CNCC[C@@H]6F)c(F)cc5n4C4CC4)cc4ccc1nc43)C2(F)F` [Example 394, 1-cyclopropyl-2-[(2~{R},5~{R},7~{S})-6,6-difluoro-2-methyl-4-oxo-3,13,19-triazatetracyclo[11.5.2.0^{5,7}.0^{16,20}]icosa-1(19),14,16(20),17-tetraen-14-yl]-6-fluoro-~{N}-[(3~{S},4~{S})-4-fluoro-3-piperidyl]benzimidazole-5-carboxamide], the IC50 was found to be 23 nM. For the molecule `C[C@H]1NC(=O)[C@@H]2C[C@H]2CCCCCn2c(-c3nc4cc(C(=O)N[C@H]5CNCC[C@@H]5F)c(F)cc4n3CCOC3CC3)cc3ccc1nc32` [Example 600, 1-[2-(cyclopropoxy)ethyl]-6-fluoro-~{N}-[(3~{S},4~ {S})-4-fluoro-3-piperidyl]-2-[(2~{R},5~{R},7~{R})-2-methyl-4-oxo-3,13,19-triazatetracyclo[11.5.2.0^ {5,7}.0^{16,20}]icosa-1(19),14,16(20),17-tetraen-14-yl]benzimidazole-5-carboxamide], the IC50 came out at 46 nM.

For the molecule `C[C@H]1NC(=O)[C@@H]2C[C@H]2CCCCCn2c(-c3nc4cc(C(=O)N[C@H]5CNCC[C@@H]5F)c(F)cc4n3CCOc3ccccn3)cc3ccc1nc32` [Example 434, 6-fluoro-~{N}-[(3~{S),4~{S})-4-fluoro-3-piperidyl]-2-[(2~{R},5~{R},7~{R})-2-methyl-4-oxo-3,13,19-triazatetracyclo[11.5.2.0^{5,7}.0^{16,20}]icosa-1(19),14,16(20),17-tetraen-14-yl]-1-[2-(2-pyridyloxy)ethyl]benzimidazole-5-carboxamide], the IC50 worked out at 41 nM. Take `COc1cc(C(=O)N[C@H]2CNCC[C@@H]2F)cc2nc(-c3cc4ccc5nc4n3CCCCC[C@@H]3[C@@H](C(=O)N[C@@H]5C)C3(F)F)n(C)c12` [Example 369, 2-[(2~{R},5~{S},7~{R})-6,6-difluoro-2-methyl-4-oxo-3,13,19-triazatetracyclo[11.5.2.0^{5,7}.0^{16,20}]icosa-1(19),14,16(20),17-tetraen-14-yl]- ~{N}-[(3~{S},4~{S})-4-fluoro-3-piperidyl]-7-methoxy-1-methyl-benzimidazole-5-carboxamide]: the half-maximal inhibitory concentration (IC50) is 37 nM.

The record behind these values is patent US11976083B2, “Inhibitors of peptidylarginine deiminases” (Gilead Sciences, Inc., priority 2020, dated 2024).
